From patent US10294246B2, “Substituted boronic acids and boronate esters as immunoproteasome inhibitors” (MERCK PATENT GMBH, priority 2014, dated 2019)

Tests used:
[1] = molecular target: human immunoproteasome (LMP7) (Homo sapiens (Human), UniProt P28062); assay: Determination of LMP7 activity (fluorescence intensity assay, Suc-LLVY-AMC); format: biochemical; details: for Selectivity LMP7 vs Beta5: LMP7 versus Beta5; for IC50: purified human immunoproteasome 0.25 nM, Suc-LLVY-AMC 40 μM
Description: Determination of LMP7 Activity:
Measurement of LMP7 inhibition is performed in 384 well format based on fluorescence intensity assay.
(§1) Purified human immunoproteasome (0.25 nM) and serial diluted compounds in DMSO (range of concentrations from 30 μM to […]) or controls are incubated for 20 minutes at 25° C. in assay buffer containing 50 mM Tris pH 7.4, 0.03% SDS, 1 mM EDTA and 1% DMSO. The reaction is initiated by the addition of the fluorogenic peptide substrate, Suc-LLVY-AMC (Bachem 1-1395), at a concentration of 40 μM. After 60 minutes of incubation at 37° C., fluorescence intensity is measured at λex=350 nm and λem=450 nm with a fluorescence reader (Perkin Elmer Envision reader or equivalent).

[2] = molecular target: human constitutive proteasome (Beta5) (Homo sapiens (Human), UniProt P28074); assay: Determination of Beta5 activity (fluorescence intensity assay, Suc-LLVY-AMC); format: biochemical; details: purified human constitutive proteasome 1.25 nM, Suc-LLVY-AMC 40 μM
Description: Determination of Beta5 Activity:
Measurement of Beta5 inhibition is performed in 384 well format based on fluorescence intensity assay.
as §1, with “constitutive proteasome (1.25” for “immunoproteasome (0.25”

| SMILES | Selectivity LMP7 vs Beta5 [1] | IC50 [1] | IC50 [2] |
| --- | --- | --- | --- |
| O=C(COc1ncc(Cl)cc1Cl)N[C@@H](Cc1ccccc1)B(O)O [Compound No. 1, [(1R)-1-[[2-[(3,5-dichloro-2-pyridyl)oxy]acetyl]amino]-2-phenyl-ethyl]boronic acid] | ++ (10 ≤ Selectivity < 50) | < 50 nM | 50 to 500 nM |
| O=C(COc1ccccn1)N[C@@H](Cc1ccccc1)B(O)O [Compound No. 2, [(1R)-2-phenyl-1-[[2-(2-pyridyloxy)acetyl]amino]ethyl]boronic acid] | ++ (10 ≤ Selectivity < 50) | 50 to 500 nM | 500 to 5000 nM |
| O=C(COc1ccccc1)N[C@@H](Cc1ccccc1)B(O)O [Compound No. 3, [(1R)-1-[(2-phenoxyacetyl)amino]-2-phenyl-ethyl]boronic acid] | ++ (10 ≤ Selectivity < 50) | < 50 nM | 50 to 500 nM |
| Cc1ccc(C[C@H](NC(=O)CCOc2ccccc2)B(O)O)cc1 [Compound No. 4, [(1R)-1-(3-phenoxypropanoylamino)-2-(p-tolyl)ethyl]boronic acid] | ++ (10 ≤ Selectivity < 50) | < 50 nM | 50 to 500 nM |
| COc1ccc(OCCC(=O)N[C@@H](Cc2ccc(C)cc2)B(O)O)cc1 [Compound No. 5, [(1R)-1-[3-(4-methoxyphenoxy)propanoylamino]-2-(p-tolyl)ethyl]boronic acid] | ++ (10 ≤ Selectivity < 50) | < 50 nM | 50 to 500 nM |
| O=C(Cc1ccccc1)N[C@@H](Cc1coc2ccccc12)B(O)O [Compound No. 6, [(1R)-2-(benzofuran-3-yl)-1-[(2-phenylacetyl)amino]ethyl]boronic acid] | +++++ (Selectivity ≥ 100) | < 50 nM | 50 to 500 nM |
| Cc1ccc(OCCC(=O)N[C@@H](Cc2coc3ccccc23)B(O)O)cc1 [Compound No. 7, [(1R)-2-(benzofuran-3-yl)-1-[3-(4-methylphenoxy)propanoylamino]-ethyl]boronic acid] | +++ (50 ≤ Selectivity < 70) | – | – |
| O=C(Cc1cccnc1)N[C@@H](Cc1coc2ccccc12)B(O)O [Compound No. 8, [(1R)-2-(benzofuran-3-yl)-1-[[2-(3-pyridyl)acetyl]amino]ethyl]boronic acid] | +++ (50 ≤ Selectivity < 70) | < 50 nM | 50 to 500 nM |
| N#Cc1ccc(CC(=O)N[C@@H](Cc2coc3ccccc23)B(O)O)cc1 [Compound No. 9, [(1R)-2-(benzofuran-3-yl)-1-[[2-(4-cyanophenyl)acetyl]amino]ethyl]-boronic acid] | ++++ (70 ≤ Selectivity < 100) | < 50 nM | 50 to 500 nM |
| COc1ccc(CC(=O)N[C@@H](Cc2coc3ccccc23)B(O)O)cc1 [Compound No. 10, [(1R)-2-(benzofuran-3-yl)-1-[[2-(4-methoxyphenyl)acetyl]amino]ethyl]-boronic acid] | ++++ (70 ≤ Selectivity < 100) | < 50 nM | 50 to 500 nM |
| O=C(COc1cccnc1)N[C@@H](Cc1coc2ccccc12)B(O)O [Compound No. 11, [(1R)-2-(benzofuran-3-yl)-1-[[2-(3-pyridyloxy)acetyl]amino]ethyl]-boronic acid] | ++ (10 ≤ Selectivity < 50) | < 50 nM | 50 to 500 nM |
| COc1cccc(CC(=O)N[C@@H](Cc2coc3ccccc23)B(O)O)n1 [Compound No. 12, [(1R)-2-(benzofuran-3-yl)-1-[[2-(6-methoxy-2-pyridyl)acetyl]amino]-ethyl]boronic acid] | +++ (50 ≤ Selectivity < 70) | < 50 nM | 50 to 500 nM |
| CCOc1ccc(CC(=O)N[C@@H](Cc2coc3ccccc23)B(O)O)nc1 [Compound No. 13, [(1R)-2-(benzofuran-3-yl)-1-[[2-(5-ethoxy-2-pyridyl)acetyl]amino]-ethyl]boronic acid] | +++++ (Selectivity ≥ 100) | < 50 nM | 50 to 500 nM |
| Cc1ccc(C[C@H](NC(=O)Cc2ccccc2)B(O)O)cc1 [Compound No. 14, [(1R)-1-[(2-phenylacetyl)amino]-2-(p-tolyl)ethyl]boronic acid] | +++ (50 ≤ Selectivity < 70) | 50 to 500 nM | 500 to 5000 nM |
| COc1cccc(CC(=O)N[C@@H](Cc2coc3ccccc23)B(O)O)c1 [Compound No. 15, [(1R)-2-(benzofuran-3-yl)-1-[[2-(3-methoxyphenyl)acetyl]amino]ethyl]-boronic acid] | ++++ (70 ≤ Selectivity < 100) | < 50 nM | 50 to 500 nM |
| Cc1ccc(C[C@H](NC(=O)[C@H](O)c2ccccc2)B(O)O)cc1 [Compound No. 16, [(1R)-1-[[(2R)-2-hydroxy-2-phenyl-acetyl]amino]-2-(p-tolyl)ethyl]-boronic acid] | ++ (10 ≤ Selectivity < 50) | 50 to 500 nM | 500 to 5000 nM |
| Cc1ccc(C[C@H](NC(=O)[C@@H](O)c2ccccc2)B(O)O)cc1 [Compound No. 17, [(1R)-1-[[(2S)-2-hydroxy-2-phenyl-acetyl]amino]-2-(p-tolyl)ethyl]-boronic acid] | ++ (10 ≤ Selectivity < 50) | 50 to 500 nM | > 5000 nM |
| O=C(Cc1cnccn1)N[C@@H](Cc1coc2ccccc12)B(O)O [Compound No. 18, [(1R)-2-(benzofuran-3-yl)-1-[(2-pyrazin-2-ylacetyl)amino]ethyl]boronic acid] | ++ (10 ≤ Selectivity < 50) | < 50 nM | 50 to 500 nM |
| O=C(Cc1ccncc1)N[C@@H](Cc1coc2ccccc12)B(O)O [Compound No. 19, [(1R)-2-(benzofuran-3-yl)-1-[[2-(4-pyridyl)acetyl]amino]ethyl]boronic acid] | +++ (50 ≤ Selectivity < 70) | < 50 nM | 500 to 5000 nM |
| O=C(Cc1ncccn1)N[C@@H](Cc1coc2ccccc12)B(O)O [Compound No. 20, [(1R)-2-(benzofuran-3-yl)-1-[(2-pyrimidin-2-ylacetyl)amino]ethyl]-boronic acid] | ++ (10 ≤ Selectivity < 50) | < 50 nM | 50 to 500 nM |
| CC(=O)Nc1ccc(CC(=O)N[C@@H](Cc2ccc(C)cc2)B(O)O)cc1 [Compound No. 21, [(1R)-1-[[2-(4-acetamidophenyl)acetyl]amino]-2-(p-tolyl)ethyl]boronic acid] | ++ (10 ≤ Selectivity < 50) | < 50 nM | > 5000 nM |
| O=C(Cc1cc(F)c(F)c(F)c1)N[C@@H](Cc1coc2ccccc12)B(O)O [Compound No. 22, [(1R)-2-(benzofuran-3-yl)-1-[[2-(3,4,5-trifluorophenyl)acetyl]amino]-ethyl]boronic acid] | ++++ (70 ≤ Selectivity < 100) | < 50 nM | 50 to 500 nM |
| O=C(N[C@@H](Cc1coc2ccccc12)B(O)O)C(F)(F)c1ccccc1 [Compound No. 23, [(1R)-2-(benzofuran-3-yl)-1-[(2,2-difluoro-2-phenyl-acetyl)amino]-ethyl]boronic acid] | +++++ (Selectivity ≥ 100) | < 50 nM | 500 to 5000 nM |
| O=C(Cc1ccccc1C(F)(F)F)N[C@@H](Cc1coc2ccccc12)B(O)O [Compound No. 24, [(1R)-2-(benzofuran-3-yl)-1-[[2-[2-(trifluoromethyl)phenyl]acetyl]-amino]ethyl]boronic acid] | +++++ (Selectivity ≥ 100) | < 50 nM | 500 to 5000 nM |
| O=C(Cc1c(Cl)cccc1Cl)N[C@@H](Cc1coc2ccccc12)B(O)O [Compound No. 25, [(1R)-2-(benzofuran-3-yl)-1-[[2-(2,6-dichlorophenyl)acetyl]amino]-ethyl]boronic acid] | ++++ (70 ≤ Selectivity < 100) | < 50 nM | 500 to 5000 nM |
| CC(=O)Nc1ccc(CC(=O)N[C@@H](Cc2coc3ccccc23)B(O)O)cc1 [Compound No. 26, [(1R)-1-[[2-(4-acetamidophenyl)acetyl]amino]-2-(benzofuran-3-yl)ethyl]boronic acid] | +++++ (Selectivity ≥ 100) | – | 50 to 500 nM |
| CCO[C@@H](C(=O)N[C@@H](Cc1coc2ccccc12)B(O)O)c1ccccc1 [Compound No. 70, [(1R)-2-(benzofuran-3-yl)-1-[[(2R)-2-ethoxy-2-phenyl-acetyl]amino]-ethyl]boronic acid] | +++++ (Selectivity ≥ 100) | – | – |
| COc1ccc(CC(=O)N[C@@H](C[C@H]2COc3ccccc32)B(O)O)cc1 [Compound No. 122, [(1R)-2-[(3R)-2,3-dihydrobenzofuran-3-yl]-1-[[2-(4-methoxyphenyl)-acetyl]amino]ethyl]boronic acid] | – | 50 to 500 nM | – |
